From PMC7663272, “Discovery of Tricyclic Pyranochromenone as Novel Bruton’s Tyrosine Kinase Inhibitors with In Vivo Antirheumatic Activity” (International Journal of Molecular Sciences, 2020)

Experiments:
EGFR = target: T1, EGFR (Homo sapiens, UniProt P00533); test: HotSpot kinase enzymatic assay, EGFR; type: biochemical
T1 construct: purchased Reaction Biology Corporation
Procedure: (§1) Therefore, efforts have focused on developing new compounds with good selectivity profiles. […] Compound 8 was selective against BTK. The biochemical activities of compound 8 differed among TEC family kinases. […] The inhibitory potential of compound 8 differed between members of the EGFR family. […] The inhibitory activity of compound 8 against JAK3 was also low.
(§2) Kinase enzymatic assays for BTK, BMX, TXK, TEC, ITK, EGFR, ERBB2, ERBB4, and JAK3 were performed at Reaction Biology Corporation (www.reactionbiology.com, Malvern, PA, USA) using the HotSpot assay platform. Briefly, specific kinase/substrate pairs and the required cofactors were prepared in a reaction buffer comprising 20 mM HEPES (pH 7.5), 10 mM MgCl2, 1 mM EGTA, 0.02% Brij35, 0.02 mg/mL BSA, 0.1 mM Na3VO4, 2 mM DTT, and 1% DMSO. The compounds were added to the reaction mixture and allowed to incubate. Approximately 20 min later, a mixture of ATP (Sigma-Aldrich, St. Louis, MO, USA) and ^33P ATP (PerkinElmer, Waltham, MA, USA) was added to the reaction mixture at a final concentration of 10 μM. The reactions were performed at room temperature for 120 min; subsequently, the reactions were spotted onto P81 ion exchange filter papers (Whatman Inc., Maidstone, UK). Any unbound phosphate was removed by thoroughly washing the filter papers with 0.75% phosphoric acid. […]

TXK = target: T2, TXK (Homo sapiens, UniProt P42681); test: HotSpot kinase enzymatic assay, TXK; type: biochemical
T2 construct: purchased Reaction Biology Corporation
T2 sequence (P42681 1-527): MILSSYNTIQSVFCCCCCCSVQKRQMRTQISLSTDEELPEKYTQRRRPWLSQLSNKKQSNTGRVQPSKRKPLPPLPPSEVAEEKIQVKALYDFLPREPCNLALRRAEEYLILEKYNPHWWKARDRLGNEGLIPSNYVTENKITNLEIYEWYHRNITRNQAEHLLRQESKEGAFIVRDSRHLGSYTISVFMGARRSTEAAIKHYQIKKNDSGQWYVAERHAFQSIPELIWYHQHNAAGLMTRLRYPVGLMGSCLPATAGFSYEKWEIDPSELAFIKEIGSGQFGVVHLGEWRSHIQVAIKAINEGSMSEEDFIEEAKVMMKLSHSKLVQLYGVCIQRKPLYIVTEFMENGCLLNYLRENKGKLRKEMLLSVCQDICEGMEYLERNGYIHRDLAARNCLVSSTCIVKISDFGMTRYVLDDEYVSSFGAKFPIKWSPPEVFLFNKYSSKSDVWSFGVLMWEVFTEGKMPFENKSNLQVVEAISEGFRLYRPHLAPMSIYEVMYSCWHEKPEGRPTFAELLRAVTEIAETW
Procedure: as §1, §2

ERBB4 = target: T3, ERBB4 (Homo sapiens, UniProt Q15303); test: HotSpot kinase enzymatic assay, ERBB4; type: biochemical
T3 construct: purchased Reaction Biology Corporation
T3 sequence (Q15303 26-1308): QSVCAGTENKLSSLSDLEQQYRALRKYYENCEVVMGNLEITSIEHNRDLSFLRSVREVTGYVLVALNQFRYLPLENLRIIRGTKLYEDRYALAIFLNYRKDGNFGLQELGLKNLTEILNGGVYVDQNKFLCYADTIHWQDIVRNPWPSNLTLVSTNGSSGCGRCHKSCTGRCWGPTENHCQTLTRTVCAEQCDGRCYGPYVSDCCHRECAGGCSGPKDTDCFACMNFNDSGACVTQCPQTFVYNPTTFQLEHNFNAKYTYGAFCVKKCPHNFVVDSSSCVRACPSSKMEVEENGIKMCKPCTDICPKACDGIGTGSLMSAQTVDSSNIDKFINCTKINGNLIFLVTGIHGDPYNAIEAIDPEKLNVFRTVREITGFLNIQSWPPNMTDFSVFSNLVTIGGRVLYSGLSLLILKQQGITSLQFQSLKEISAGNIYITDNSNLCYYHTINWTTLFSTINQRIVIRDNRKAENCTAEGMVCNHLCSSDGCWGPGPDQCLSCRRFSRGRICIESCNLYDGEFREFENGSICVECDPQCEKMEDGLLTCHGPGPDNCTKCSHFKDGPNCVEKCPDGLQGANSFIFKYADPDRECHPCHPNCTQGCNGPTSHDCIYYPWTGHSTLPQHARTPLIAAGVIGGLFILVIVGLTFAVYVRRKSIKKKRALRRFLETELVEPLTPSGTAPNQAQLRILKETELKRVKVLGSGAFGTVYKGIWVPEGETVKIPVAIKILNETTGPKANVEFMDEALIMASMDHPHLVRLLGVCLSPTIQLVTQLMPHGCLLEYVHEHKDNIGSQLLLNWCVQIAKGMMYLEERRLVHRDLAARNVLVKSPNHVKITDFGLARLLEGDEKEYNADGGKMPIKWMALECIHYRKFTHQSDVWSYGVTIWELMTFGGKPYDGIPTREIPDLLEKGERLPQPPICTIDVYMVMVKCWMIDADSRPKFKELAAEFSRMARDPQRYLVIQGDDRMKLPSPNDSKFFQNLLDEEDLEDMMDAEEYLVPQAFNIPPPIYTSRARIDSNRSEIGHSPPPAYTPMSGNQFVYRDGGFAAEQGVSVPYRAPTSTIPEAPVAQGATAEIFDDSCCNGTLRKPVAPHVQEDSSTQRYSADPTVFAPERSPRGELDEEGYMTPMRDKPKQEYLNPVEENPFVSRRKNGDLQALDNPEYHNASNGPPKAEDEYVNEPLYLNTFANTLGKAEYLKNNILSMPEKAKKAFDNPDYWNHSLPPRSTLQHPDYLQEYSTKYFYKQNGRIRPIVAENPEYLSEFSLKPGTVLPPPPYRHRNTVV
Procedure: as §1, §2

TEC = target: T4, TEC (Homo sapiens, UniProt P42680); test: HotSpot kinase enzymatic assay, TEC; type: biochemical
T4 construct: purchased Reaction Biology Corporation
T4 sequence (P42680 1-631): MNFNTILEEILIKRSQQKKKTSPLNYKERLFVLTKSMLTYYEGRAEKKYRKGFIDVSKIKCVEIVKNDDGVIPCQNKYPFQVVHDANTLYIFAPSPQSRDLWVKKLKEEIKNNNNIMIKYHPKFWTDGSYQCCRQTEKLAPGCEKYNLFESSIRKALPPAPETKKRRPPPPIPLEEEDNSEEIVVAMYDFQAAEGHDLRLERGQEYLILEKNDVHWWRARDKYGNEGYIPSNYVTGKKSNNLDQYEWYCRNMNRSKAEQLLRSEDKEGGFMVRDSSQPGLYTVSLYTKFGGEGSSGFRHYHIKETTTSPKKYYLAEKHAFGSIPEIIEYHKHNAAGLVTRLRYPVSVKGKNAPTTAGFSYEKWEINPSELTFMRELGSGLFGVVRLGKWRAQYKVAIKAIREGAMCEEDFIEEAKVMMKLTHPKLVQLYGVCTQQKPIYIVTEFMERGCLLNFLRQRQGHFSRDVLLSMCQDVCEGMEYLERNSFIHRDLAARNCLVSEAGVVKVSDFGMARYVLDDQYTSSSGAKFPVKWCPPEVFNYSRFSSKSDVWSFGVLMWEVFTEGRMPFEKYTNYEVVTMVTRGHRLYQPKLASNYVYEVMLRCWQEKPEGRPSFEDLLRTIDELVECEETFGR
Procedure: as §1, §2

CYP2D6 = target: T5, CYP2D6 (Homo sapiens, UniProt P10635); test: P450-Glo CYP inhibition assay, CYP2D6; type: in vitro ADME
T5 construct: purchased Promega V9890
T5 sequence (P10635 whole entry): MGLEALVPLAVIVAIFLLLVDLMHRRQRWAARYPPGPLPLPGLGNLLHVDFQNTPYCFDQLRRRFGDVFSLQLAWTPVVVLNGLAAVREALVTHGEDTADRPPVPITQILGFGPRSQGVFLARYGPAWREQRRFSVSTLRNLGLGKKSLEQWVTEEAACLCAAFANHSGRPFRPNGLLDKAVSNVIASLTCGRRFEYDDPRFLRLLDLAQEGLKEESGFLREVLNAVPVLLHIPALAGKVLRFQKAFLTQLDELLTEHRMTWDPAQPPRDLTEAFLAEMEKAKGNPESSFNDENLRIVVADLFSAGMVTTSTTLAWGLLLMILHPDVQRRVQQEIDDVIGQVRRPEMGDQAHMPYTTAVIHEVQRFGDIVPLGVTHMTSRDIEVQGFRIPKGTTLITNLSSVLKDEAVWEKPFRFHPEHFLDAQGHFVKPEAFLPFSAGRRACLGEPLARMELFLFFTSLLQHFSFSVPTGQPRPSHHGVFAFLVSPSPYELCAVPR
Procedure: The potential for CYP450 inhibition (CYP1A2, 2C9, 2C19, 2D6, and […]) was assessed using Promega P450-Glo^TM CYP450 assay systems. Luciferin-ME served as the substrate for CYP1A2, and the inhibitor α-naphthoflavone was used as a positive control. Luciferin-H was used as the substrate for CYP2C9, and the inhibitor sulfaphenazole was used as a positive control. Luciferin-H EGE was selected as the substrate for CYP2C19, whereas the inhibitor amitriptyline served as a positive control. Luciferin-ME EGE was used as the substrate for CYP2D6, whereas the inhibitor quinidine served as a positive control. Luciferin-BE was used as the substrate for CYP3A4, whereas the inhibitor ketoconazole was used as a positive control. The assays were performed using the excitation and emission wavelengths recommended by the manufacturer. Briefly, a CYP enzyme and a P450-Glo™ substrate were combined in potassium phosphate (0.1 M KPO4) buffer, with or without a test compound of interest, and […]. The reaction was initiated by adding two volumes of 2 times concentrated NADPH regeneration system. […] Luminescence was subsequently measured using a Tecan Infinite M1000 PRO microplate reader (Tecan Group Ltd., Switzerland). The percent inhibition was calculated relative to that of the positive control at a fixed concentration. […]

T1 sequence (P00533 25-1210): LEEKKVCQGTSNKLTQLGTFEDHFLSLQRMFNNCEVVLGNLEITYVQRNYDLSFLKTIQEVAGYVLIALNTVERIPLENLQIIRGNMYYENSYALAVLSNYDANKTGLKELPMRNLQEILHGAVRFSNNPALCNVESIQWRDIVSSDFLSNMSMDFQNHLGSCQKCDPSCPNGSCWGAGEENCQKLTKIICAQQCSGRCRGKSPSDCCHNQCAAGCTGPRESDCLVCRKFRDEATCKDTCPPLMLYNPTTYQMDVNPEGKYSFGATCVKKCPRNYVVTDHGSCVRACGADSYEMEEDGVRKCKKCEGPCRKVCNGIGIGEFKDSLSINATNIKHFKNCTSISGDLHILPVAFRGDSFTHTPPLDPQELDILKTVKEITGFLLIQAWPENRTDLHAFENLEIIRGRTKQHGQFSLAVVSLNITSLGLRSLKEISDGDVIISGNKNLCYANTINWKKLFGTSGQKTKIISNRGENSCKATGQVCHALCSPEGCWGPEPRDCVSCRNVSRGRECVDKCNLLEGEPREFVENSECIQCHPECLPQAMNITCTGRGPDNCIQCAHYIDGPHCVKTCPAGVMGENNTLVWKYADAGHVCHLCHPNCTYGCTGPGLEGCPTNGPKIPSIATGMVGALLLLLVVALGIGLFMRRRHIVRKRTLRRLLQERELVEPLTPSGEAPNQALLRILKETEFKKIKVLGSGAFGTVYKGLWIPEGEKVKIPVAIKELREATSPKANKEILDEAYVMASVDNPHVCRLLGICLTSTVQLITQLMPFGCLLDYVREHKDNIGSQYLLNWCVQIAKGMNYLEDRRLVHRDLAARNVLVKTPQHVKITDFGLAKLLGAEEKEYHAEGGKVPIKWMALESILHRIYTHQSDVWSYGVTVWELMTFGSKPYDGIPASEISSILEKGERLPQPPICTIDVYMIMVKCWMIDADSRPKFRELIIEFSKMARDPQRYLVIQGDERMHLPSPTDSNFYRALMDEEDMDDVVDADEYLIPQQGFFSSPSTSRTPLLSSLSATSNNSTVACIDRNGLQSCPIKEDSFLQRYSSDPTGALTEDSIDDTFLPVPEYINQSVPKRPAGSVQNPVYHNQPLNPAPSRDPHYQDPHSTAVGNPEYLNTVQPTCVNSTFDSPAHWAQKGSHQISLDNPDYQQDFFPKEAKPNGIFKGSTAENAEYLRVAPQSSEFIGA

Question: Which results are given for `C=CC(=O)O[C@H]1Cc2cc3ccc(=O)oc3cc2OC1(C)C` [Compound 8, (7S)-(+)-Acrylic acid, 8,8-dimethyl-2-oxo-6,7-dihydro-2H,8H-pyrano [3,2-g]chromen-7-yl ester]?
Answer: inhibitory activity against EGFR (in words) (EGFR): weak inhibitory activity; inhibition at 10 µM (EGFR; 10 µM, mean of two experiments): 32.9%; inhibitory activity against TXK (in words) (TXK): strong inhibitory activity; inhibition at 10 µM (TXK; 10 µM, mean of two experiments): 88.5%; inhibitory activity against ERBB4 (in words) (ERBB4): inactive; inhibitory activity against TEC (in words) (TEC): moderate activity; inhibition at 10 µM (TEC; 10 µM, mean of two experiments): 54.5%; CYP2D6 inhibition (in words) (CYP2D6): weakly inhibited; CYP inhibition 2D6 (CYP2D6; % inhibition of human CYP isozymes at 10 μM): 18.9%
